Reference: patent US8952024B2, “Herbicidal pyrimidone derivatives” (E I du Pont de Nemours and Company, priority 2009, dated 2015)

Tests used:
Type in all cases: in vivo
[1] = tested on: large crabgrass (Digitaria sanguinalis); assay: Test A pre-/postemergence plant response; conditions: for Crabgrass, Large plant response rating: visual injury, 0 to 100 scale (0 no effect, 100 complete control), approx. ten days
Summary of the method: (§1)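 Plants grown from seed in a loam soil and sand mix received test compounds both as a preemergence soil spray and, at the same time, as a postemergence spray at the one- to two-leaf stage. Injury was judged visually against untreated controls roughly ten days later, 0 meaning no effect and 100 complete control.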

[2] = tested on: giant foxtail (Setaria faberii); assay: Test A pre-/postemergence plant response; conditions: for Foxtail, Giant plant response rating: visual injury, 0 to 100 scale (0 no effect, 100 complete control), approx. ten days
Summary of the method: as §1

[3] = tested on: morningglory (Ipomoea spp.); assay: Test A pre-/postemergence plant response; conditions: for Morningglory plant response rating: visual injury, 0 to 100 scale (0 no effect, 100 complete control), approx. ten days
Summary of the method: as §1

corn (Zea mays) = assay: Test A pre-/postemergence plant response; conditions: for Corn plant response rating: visual injury, 0 to 100 scale (0 no effect, 100 complete control), approx. ten days
Summary of the method: as §1

[4] = tested on: barnyardgrass (Echinochloa crus-galli); assay: Test A pre-/postemergence plant response; conditions: for Barnyardgrass plant response rating: visual injury, 0 to 100 scale (0 no effect, 100 complete control), approx. ten days
Summary of the method: as §1

[5] = tested on: pigweed (Amaranthus retroflexus); assay: Test A pre-/postemergence plant response; conditions: for Pigweed plant response rating: visual injury, 0 to 100 scale (0 no effect, 100 complete control), approx. ten days
Summary of the method: as §1

[6] = tested on: wheat (Triticum aestivum); assay: Test A pre-/postemergence plant response; conditions: for Wheat plant response rating: visual injury, 0 to 100 scale (0 no effect, 100 complete control), approx. ten days
Summary of the method: as §1

[7] = tested on: velvetleaf (Abutilon theophrasti); assay: Test A pre-/postemergence plant response; conditions: for Velvetleaf plant response rating: visual injury, 0 to 100 scale (0 no effect, 100 complete control), approx. ten days
Summary of the method: as §1

rice (Oryza sativa) = assay: Test B flooded paddy test; conditions: for Plant response rating, Flood, Rice: 250 g ai/ha, flooded paddy test, visual rating on 0 to 100 scale (0 no effect, 100 complete control) after 13 to 15 days; for Plant response rating, Rice: Flood (flooded paddy test), 13 to 15 days; for Rice plant response rating: Flood, 31 g ai/ha, scale 0 to 100 (0 no effect, 100 complete control)
Summary of the method: (§2)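 Flooded-pot test: water raised to 3 cm above soil when treating, compound put in the water, level unchanged thereafter. Plants were at 2 leaves. Readout after 13 to 15 days, visual, relative to controls; 0 signifies no effect and 100 complete control.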

[8] = tested on: ducksalad (Heteranthera limosa); assay: Test B flooded paddy test; conditions: for Plant response rating, Flood, Ducksalad: 250 g ai/ha, flooded paddy test, visual rating on 0 to 100 scale (0 no effect, 100 complete control) after 13 to 15 days; for Plant response rating, Ducksalad: Flood (flooded paddy test), 13 to 15 days; for Ducksalad plant response rating: Flood, 31 g ai/ha, scale 0 to 100 (0 no effect, 100 complete control)
Summary of the method: as §2

[9] = tested on: barnyardgrass (Echinochloa crus-galli); assay: Test B flooded paddy test; conditions: for Plant response rating, Flood, Barnyardgrass: 250 g ai/ha, flooded paddy test, visual rating on 0 to 100 scale (0 no effect, 100 complete control) after 13 to 15 days; for Plant response rating, Barnyardgrass: Flood (flooded paddy test), 13 to 15 days; for Barnyardgrass plant response rating: Flood, 31 g ai/ha, scale 0 to 100 (0 no effect, 100 complete control)
Summary of the method: as §2

[10] = tested on: umbrella sedge (Cyperus difformis); assay: Test B flooded paddy test; conditions: for Plant response rating, Flood, Sedge, Umbrella: 250 g ai/ha, flooded paddy test, visual rating on 0 to 100 scale (0 no effect, 100 complete control) after 13 to 15 days; for Plant response rating, Sedge, Umbrella: Flood (flooded paddy test), 13 to 15 days; for Sedge, Umbrella plant response rating: Flood, 31 g ai/ha, scale 0 to 100 (0 no effect, 100 complete control)
Summary of the method: as §2

[11] = Postemergence, 125 g ai/ha, 0 to 100 scale where 0 is no effect and 100 is complete control
[12] = Preemergence, 125 g ai/ha, 0 to 100 scale, 0 = no effect, 100 = complete control
[13] = Preemergence, 500 g ai/ha, 0 to 100 scale, 0 = no effect, 100 = complete control
[14] = 62 g ai/ha, scale of 0 to 100 where 0 is no effect and 100 is complete control
[15] = 125 g ai/ha, scale 0 to 100, 0 is no effect, 100 is complete control

Cc1ccccc1-n1c(-c2cccc(Br)c2)ncc(C(=O)C2=C(O)CCCC2=O)c1=O [Compound 209]
100: Crabgrass, Large plant response rating ([1]; Postemergence, 500 g ai/ha) | Foxtail, Giant plant response rating ([2]; Postemergence, 500 g ai/ha) | Morningglory plant response rating ([3]; Postemergence, 500 g ai/ha) | Barnyardgrass plant response rating ([4]; Postemergence, 500 g ai/ha) | Pigweed plant response rating ([5]; Postemergence, 500 g ai/ha) | Plant response rating, Velvetleaf [7, 11] | Velvetleaf plant response rating ([7]; Postemergence, 500 g ai/ha) | Plant response rating, Velvetleaf [7, 13]
10: Plant response rating, Foxtail, Giant [2, 12] | Plant response rating, Rice (rice (Oryza sativa); [15])
60: Plant response rating, Foxtail, Giant [2, 11] | Plant response rating, Foxtail, Giant [2, 13] | Plant response rating, Pigweed [5, 11] | Plant response rating, Velvetleaf [7, 12]
30: Plant response rating, Morningglory [3, 11] | Plant response rating, Morningglory [3, 13]
85: Plant response rating, Flood, Ducksalad [8] | Plant response rating, Ducksalad [8, 15]
40: Corn plant response rating (corn (Zea mays); Postemergence, 500 g ai/ha)
20: Plant response rating, Crabgrass, Large [1, 12] | Plant response rating, Corn (corn (Zea mays); [13]) | Plant response rating, Flood, Rice (rice (Oryza sativa)) | Plant response rating, Flood, Barnyardgrass [9]
70: Plant response rating, Crabgrass, Large [1, 13] | Plant response rating, Pigweed [5, 13] | Plant response rating, Sedge, Umbrella [10, 15]
50: Plant response rating, Crabgrass, Large [1, 11] | Plant response rating, Barnyardgrass [4, 13] | Plant response rating, Ducksalad [8, 14] | Plant response rating, Sedge, Umbrella [10, 14]
80: Plant response rating, Barnyardgrass [4, 11] | Plant response rating, Flood, Sedge, Umbrella [10]
0: Plant response rating, Morningglory [3, 12] | Plant response rating, Corn (corn (Zea mays); [11]) | Plant response rating, Corn (corn (Zea mays); [12]) | Plant response rating, Barnyardgrass [4, 12] | Plant response rating, Pigweed [5, 12] | Plant response rating, Wheat [6, 11] | Wheat plant response rating ([6]; Postemergence, 500 g ai/ha) | Plant response rating, Wheat [6, 12] | Plant response rating, Wheat [6, 13] | Plant response rating, Rice (rice (Oryza sativa); [14]) | Rice plant response rating (rice (Oryza sativa)) | Ducksalad plant response rating [8] | Plant response rating, Barnyardgrass [9, 14] | Plant response rating, Barnyardgrass [9, 15] | Barnyardgrass plant response rating [9] | Sedge, Umbrella plant response rating [10]

Cc1ccc(-n2c(-c3cccc(C)c3)ncc(C(=O)C3=C(O)CCCC3=O)c2=O)cc1 [Compound 211]
25: Plant response rating, Barnyardgrass [9, 15]
100: Morningglory plant response rating ([3]; Postemergence, 500 g ai/ha) | Barnyardgrass plant response rating ([4]; Postemergence, 500 g ai/ha)
85: Plant response rating, Flood, Ducksalad [8] | Plant response rating, Ducksalad [8, 15]
90: Plant response rating, Crabgrass, Large [1, 13] | Pigweed plant response rating ([5]; Postemergence, 500 g ai/ha)
35: Plant response rating, Flood, Barnyardgrass [9]
30: Plant response rating, Velvetleaf [7, 12]
15: Plant response rating, Flood, Rice (rice (Oryza sativa))
0: Plant response rating, Morningglory [3, 12] | Plant response rating, Corn (corn (Zea mays); [11]) | Plant response rating, Corn (corn (Zea mays); [12]) | Plant response rating, Corn (corn (Zea mays); [13]) | Plant response rating, Wheat [6, 11] | Wheat plant response rating ([6]; Postemergence, 500 g ai/ha) | Plant response rating, Wheat [6, 12] | Plant response rating, Wheat [6, 13] | Plant response rating, Rice (rice (Oryza sativa); [14]) | Plant response rating, Rice (rice (Oryza sativa); [15]) | Rice plant response rating (rice (Oryza sativa)) | Plant response rating, Barnyardgrass [9, 14] | Barnyardgrass plant response rating [9] | Plant response rating, Sedge, Umbrella [10, 14] | Sedge, Umbrella plant response rating [10]
60: Plant response rating, Pigweed [5, 13] | Plant response rating, Velvetleaf [7, 11] | Plant response rating, Velvetleaf [7, 13]
50: Plant response rating, Foxtail, Giant [2, 11] | Plant response rating, Foxtail, Giant [2, 13] | Plant response rating, Barnyardgrass [4, 11] | Ducksalad plant response rating [8]
10: Plant response rating, Crabgrass, Large [1, 12] | Plant response rating, Morningglory [3, 13] | Plant response rating, Barnyardgrass [4, 12]
20: Plant response rating, Foxtail, Giant [2, 12] | Corn plant response rating (corn (Zea mays); Postemergence, 500 g ai/ha)
80: Crabgrass, Large plant response rating ([1]; Postemergence, 500 g ai/ha) | Foxtail, Giant plant response rating ([2]; Postemergence, 500 g ai/ha) | Plant response rating, Flood, Sedge, Umbrella [10]
40: Plant response rating, Crabgrass, Large [1, 11] | Plant response rating, Pigweed [5, 12]
70: Plant response rating, Morningglory [3, 11] | Plant response rating, Barnyardgrass [4, 13] | Plant response rating, Pigweed [5, 11] | Velvetleaf plant response rating ([7]; Postemergence, 500 g ai/ha) | Plant response rating, Sedge, Umbrella [10, 15]
